Source: ChEMBL document CHEMBL4630901 (2021)

Key:
Conditions in all cases: Compound concentration 10.0 uM
[1] = target: T1, 5-hydroxytryptamine receptor 1A (Homo sapiens) (UniProt P08908)
T1 sequence (whole entry): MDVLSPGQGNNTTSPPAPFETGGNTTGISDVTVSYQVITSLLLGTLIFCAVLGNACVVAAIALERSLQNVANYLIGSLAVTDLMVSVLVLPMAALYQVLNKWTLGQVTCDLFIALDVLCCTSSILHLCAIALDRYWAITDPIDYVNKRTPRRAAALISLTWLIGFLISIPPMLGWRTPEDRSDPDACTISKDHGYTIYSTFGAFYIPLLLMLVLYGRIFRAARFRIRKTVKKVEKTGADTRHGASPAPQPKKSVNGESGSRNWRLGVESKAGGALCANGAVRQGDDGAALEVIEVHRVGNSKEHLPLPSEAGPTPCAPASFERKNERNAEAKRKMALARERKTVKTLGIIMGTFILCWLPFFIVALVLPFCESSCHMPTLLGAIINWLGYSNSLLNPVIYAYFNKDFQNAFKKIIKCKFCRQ

[2] = target: 5-hydroxytryptamine receptor 2B (Homo sapiens) (UniProt P41595)
[3] = target: 5-hydroxytryptamine receptor 6 (Homo sapiens) (UniProt P50406)
[4] = target: 5-hydroxytryptamine receptor 7 (Homo sapiens) (UniProt P34969)
[5] = target: D(1A) dopamine receptor (Homo sapiens) (UniProt P21728)
[6] = target: D(2) dopamine receptor (Homo sapiens) (UniProt P14416)
[7] = target: Sodium-dependent serotonin transporter (Homo sapiens) (UniProt P31645)
[8] = target: Histamine H1 receptor (Homo sapiens) (UniProt P35367)
[9] = target: Histamine H2 receptor (Homo sapiens) (UniProt P25021)
[10] = target: T2, Alpha-1A adrenergic receptor (Homo sapiens) (UniProt P35348)
T2 sequence (whole entry): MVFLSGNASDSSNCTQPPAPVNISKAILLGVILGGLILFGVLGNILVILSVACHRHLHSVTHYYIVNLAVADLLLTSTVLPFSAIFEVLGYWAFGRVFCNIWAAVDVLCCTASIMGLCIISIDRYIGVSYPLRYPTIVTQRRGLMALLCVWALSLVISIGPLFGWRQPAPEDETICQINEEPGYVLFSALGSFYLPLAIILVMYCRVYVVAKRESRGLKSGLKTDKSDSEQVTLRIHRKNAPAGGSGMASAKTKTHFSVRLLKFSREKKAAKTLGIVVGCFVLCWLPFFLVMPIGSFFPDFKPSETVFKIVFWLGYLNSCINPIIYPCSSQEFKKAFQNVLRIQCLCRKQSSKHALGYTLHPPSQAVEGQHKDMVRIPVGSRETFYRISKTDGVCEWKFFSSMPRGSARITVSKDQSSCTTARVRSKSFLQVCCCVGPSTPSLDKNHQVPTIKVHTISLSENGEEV

[11] = target: Alpha-1B adrenergic receptor (Homo sapiens) (UniProt P35368)
[12] = target: Beta-2 adrenergic receptor (Homo sapiens) (UniProt P07550)
[13] = target: T3, Muscarinic acetylcholine receptor M1 (Homo sapiens) (UniProt P11229)
T3 sequence (whole entry): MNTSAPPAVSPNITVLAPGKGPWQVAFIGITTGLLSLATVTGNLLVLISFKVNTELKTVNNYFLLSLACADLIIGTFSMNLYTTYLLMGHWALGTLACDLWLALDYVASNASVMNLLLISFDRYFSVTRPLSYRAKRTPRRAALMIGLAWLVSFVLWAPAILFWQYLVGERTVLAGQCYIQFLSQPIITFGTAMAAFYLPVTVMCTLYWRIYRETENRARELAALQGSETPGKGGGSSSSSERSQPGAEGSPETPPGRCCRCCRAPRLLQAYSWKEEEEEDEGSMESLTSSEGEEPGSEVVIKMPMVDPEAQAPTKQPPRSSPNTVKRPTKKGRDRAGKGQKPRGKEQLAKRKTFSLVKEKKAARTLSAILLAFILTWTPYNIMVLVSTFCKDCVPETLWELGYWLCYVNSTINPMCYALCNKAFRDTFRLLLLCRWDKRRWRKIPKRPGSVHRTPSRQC

[14] = target: T4, Muscarinic acetylcholine receptor M2 (Homo sapiens) (UniProt P08172)
T4 sequence (whole entry): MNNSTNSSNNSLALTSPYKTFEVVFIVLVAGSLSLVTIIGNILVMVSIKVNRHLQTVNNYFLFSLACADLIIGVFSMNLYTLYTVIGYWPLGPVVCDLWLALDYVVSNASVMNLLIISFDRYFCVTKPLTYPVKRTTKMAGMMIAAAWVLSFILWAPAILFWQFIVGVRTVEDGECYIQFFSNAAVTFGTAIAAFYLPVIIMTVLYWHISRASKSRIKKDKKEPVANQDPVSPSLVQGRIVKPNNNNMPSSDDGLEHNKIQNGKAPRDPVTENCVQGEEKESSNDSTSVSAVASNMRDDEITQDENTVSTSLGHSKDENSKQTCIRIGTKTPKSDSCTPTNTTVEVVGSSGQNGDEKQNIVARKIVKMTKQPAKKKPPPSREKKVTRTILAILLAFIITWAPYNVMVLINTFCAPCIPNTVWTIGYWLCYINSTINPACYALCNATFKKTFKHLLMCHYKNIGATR

Rattus norvegicus = species: Rattus norvegicus
[15] = target: Alpha-1D adrenergic receptor (Homo sapiens) (UniProt P25100)

Measured: inhibition

Chain of Sodium-dependent serotonin transporter (Homo sapiens) (P31645 whole entry, looked up): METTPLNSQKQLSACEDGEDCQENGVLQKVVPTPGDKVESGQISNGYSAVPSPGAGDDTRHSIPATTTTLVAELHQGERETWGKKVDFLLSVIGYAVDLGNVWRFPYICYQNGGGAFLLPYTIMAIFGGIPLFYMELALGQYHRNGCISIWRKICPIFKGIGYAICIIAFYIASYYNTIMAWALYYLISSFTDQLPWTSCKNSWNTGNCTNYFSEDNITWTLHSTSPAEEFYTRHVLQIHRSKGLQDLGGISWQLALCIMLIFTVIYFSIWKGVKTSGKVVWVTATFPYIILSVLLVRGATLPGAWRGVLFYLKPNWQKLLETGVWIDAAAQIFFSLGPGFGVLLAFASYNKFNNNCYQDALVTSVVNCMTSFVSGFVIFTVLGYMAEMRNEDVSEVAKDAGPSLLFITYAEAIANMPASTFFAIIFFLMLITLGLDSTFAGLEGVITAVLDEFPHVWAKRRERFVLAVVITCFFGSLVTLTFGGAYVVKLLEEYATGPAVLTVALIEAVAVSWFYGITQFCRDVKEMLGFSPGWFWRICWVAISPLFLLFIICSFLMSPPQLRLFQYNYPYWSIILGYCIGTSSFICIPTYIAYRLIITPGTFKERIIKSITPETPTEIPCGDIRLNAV
Chain of 5-hydroxytryptamine receptor 7 (Homo sapiens) (P34969 whole entry): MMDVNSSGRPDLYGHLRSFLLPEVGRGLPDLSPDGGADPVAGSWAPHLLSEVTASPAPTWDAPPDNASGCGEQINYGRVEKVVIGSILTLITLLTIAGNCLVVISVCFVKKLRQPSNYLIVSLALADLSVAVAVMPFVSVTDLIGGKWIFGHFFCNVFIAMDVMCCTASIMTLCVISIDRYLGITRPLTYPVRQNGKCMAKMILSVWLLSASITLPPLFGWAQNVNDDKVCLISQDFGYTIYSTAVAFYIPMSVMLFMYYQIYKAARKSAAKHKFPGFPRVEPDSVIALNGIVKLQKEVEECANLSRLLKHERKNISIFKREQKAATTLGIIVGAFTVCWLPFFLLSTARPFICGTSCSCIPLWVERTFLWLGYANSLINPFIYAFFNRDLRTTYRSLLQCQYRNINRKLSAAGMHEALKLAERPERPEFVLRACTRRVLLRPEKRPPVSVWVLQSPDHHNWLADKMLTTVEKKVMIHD
Chain of D(1A) dopamine receptor (Homo sapiens) (P21728 whole entry): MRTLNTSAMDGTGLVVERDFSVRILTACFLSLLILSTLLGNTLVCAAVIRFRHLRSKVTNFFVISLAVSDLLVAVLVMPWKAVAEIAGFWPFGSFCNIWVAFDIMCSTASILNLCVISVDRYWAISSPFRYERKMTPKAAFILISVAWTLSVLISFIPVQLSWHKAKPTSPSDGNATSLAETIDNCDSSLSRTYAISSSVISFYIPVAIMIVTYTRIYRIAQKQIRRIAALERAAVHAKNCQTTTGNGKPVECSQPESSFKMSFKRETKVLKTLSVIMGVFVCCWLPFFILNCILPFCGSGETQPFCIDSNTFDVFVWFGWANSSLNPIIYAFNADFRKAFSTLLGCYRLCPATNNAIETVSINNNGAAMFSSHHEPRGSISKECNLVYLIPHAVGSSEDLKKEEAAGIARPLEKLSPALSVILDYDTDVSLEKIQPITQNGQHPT
Chain of Alpha-1D adrenergic receptor (Homo sapiens) (P25100 whole entry): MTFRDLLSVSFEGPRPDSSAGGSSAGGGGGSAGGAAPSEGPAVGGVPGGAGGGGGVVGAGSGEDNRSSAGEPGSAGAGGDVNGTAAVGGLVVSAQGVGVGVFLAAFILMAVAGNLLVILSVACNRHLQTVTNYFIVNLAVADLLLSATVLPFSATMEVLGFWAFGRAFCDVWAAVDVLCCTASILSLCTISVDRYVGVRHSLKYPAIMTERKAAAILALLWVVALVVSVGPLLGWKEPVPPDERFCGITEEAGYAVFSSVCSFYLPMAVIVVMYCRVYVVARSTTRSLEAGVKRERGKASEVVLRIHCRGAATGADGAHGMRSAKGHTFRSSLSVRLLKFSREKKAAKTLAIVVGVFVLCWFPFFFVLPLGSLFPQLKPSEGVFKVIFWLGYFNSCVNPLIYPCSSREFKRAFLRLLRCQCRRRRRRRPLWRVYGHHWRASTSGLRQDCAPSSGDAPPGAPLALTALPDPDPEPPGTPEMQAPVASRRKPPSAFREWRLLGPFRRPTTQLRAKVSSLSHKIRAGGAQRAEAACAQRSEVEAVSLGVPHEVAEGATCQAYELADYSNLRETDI
Chain of D(2) dopamine receptor (Homo sapiens) (P14416 whole entry): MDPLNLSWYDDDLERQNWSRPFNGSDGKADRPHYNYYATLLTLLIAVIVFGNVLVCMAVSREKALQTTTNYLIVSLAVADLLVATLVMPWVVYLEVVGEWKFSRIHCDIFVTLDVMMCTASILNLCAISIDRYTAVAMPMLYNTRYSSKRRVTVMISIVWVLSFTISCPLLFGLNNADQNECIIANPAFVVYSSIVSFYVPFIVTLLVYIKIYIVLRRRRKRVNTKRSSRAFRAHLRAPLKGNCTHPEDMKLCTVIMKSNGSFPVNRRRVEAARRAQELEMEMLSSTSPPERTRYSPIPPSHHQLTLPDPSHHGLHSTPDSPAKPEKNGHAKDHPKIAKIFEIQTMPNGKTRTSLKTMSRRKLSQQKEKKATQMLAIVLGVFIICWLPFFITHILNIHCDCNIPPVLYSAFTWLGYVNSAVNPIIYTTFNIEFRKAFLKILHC
Chain of 5-hydroxytryptamine receptor 2B (Homo sapiens) (P41595 whole entry): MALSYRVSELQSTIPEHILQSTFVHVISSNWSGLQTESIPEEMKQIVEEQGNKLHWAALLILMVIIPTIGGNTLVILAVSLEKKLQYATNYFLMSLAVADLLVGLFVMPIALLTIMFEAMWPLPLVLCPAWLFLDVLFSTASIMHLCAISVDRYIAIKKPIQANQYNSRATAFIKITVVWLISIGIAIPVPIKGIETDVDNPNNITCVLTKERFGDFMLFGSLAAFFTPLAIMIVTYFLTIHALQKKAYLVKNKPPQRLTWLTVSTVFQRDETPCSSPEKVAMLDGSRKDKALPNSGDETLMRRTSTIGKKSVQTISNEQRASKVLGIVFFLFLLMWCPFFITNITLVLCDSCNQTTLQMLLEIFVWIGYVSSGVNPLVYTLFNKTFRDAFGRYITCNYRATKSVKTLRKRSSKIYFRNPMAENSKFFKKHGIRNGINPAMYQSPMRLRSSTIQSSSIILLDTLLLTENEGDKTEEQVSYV
Chain of Histamine H1 receptor (Homo sapiens) (P35367 whole entry): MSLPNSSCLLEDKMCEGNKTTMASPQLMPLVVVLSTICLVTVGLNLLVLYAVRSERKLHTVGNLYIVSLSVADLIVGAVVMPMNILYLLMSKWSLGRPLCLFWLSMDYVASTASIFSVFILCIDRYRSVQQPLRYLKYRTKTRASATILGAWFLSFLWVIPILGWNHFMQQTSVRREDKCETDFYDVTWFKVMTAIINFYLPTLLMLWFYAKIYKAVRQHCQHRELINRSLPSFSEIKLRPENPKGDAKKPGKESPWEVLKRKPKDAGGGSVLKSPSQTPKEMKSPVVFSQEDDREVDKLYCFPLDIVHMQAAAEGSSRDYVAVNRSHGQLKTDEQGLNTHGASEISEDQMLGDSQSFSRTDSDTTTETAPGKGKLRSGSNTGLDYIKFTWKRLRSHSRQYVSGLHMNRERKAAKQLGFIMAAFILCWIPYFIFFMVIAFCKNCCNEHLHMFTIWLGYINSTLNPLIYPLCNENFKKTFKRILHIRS
Chain of Histamine H2 receptor (Homo sapiens) (P25021 whole entry): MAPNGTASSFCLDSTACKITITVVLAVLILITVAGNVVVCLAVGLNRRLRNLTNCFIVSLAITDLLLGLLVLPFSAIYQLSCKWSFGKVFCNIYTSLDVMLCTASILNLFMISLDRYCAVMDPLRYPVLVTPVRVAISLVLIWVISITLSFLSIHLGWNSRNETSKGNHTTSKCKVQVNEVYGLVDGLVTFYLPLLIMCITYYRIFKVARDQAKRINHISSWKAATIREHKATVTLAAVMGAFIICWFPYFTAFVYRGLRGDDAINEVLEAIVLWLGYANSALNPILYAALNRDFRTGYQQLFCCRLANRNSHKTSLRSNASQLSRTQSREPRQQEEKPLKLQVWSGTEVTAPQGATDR
Chain of Beta-2 adrenergic receptor (Homo sapiens) (P07550 whole entry, looked up): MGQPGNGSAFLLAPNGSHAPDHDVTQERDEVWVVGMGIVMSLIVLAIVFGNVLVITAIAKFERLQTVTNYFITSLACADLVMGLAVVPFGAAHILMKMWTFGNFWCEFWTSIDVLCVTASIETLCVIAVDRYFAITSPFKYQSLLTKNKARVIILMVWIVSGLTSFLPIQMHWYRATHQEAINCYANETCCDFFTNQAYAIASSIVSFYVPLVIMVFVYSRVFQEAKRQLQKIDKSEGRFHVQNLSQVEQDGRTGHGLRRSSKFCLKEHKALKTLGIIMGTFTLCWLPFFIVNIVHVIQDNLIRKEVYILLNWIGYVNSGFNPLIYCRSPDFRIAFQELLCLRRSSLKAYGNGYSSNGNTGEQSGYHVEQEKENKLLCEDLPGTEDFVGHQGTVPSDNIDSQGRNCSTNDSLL
Chain of 5-hydroxytryptamine receptor 6 (Homo sapiens) (P50406 whole entry): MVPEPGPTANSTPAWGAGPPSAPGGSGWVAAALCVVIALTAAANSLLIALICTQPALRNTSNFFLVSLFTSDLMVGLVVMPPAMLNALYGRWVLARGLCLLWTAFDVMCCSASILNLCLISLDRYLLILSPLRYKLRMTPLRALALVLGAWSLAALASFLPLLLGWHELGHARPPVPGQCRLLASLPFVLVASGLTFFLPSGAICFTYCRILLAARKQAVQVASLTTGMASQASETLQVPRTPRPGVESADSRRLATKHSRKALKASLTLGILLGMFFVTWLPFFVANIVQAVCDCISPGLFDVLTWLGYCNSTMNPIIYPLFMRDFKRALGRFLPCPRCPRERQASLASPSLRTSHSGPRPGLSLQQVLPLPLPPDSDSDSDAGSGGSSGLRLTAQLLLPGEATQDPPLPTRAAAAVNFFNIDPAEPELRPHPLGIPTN

Cc1c(N2CCNCC2)nc2ccc(Br)cc2c1C(=O)NC[C@H](CCC(=O)O)c1ccccc1Cl [BAY-403]
inactive: [1] 47.1% | [2] 31% | [3] 1.76% | [4] 13% | [5] 31.6% | [6] 2.75% | [7] 5.34% | [8] 17.5% | [9] -4.15% | [10] 23.3% | [11] -2.31% | [12] 18.4% | [13] 8.42% | [14] 13.8% | Rattus norvegicus 20% | [15] 16%

Cc1c(N2CCCC2)nc2ccc(Br)cc2c1C(=O)NC[C@H](CCC(=O)O)c1ccccc1Cl [BAY-6672]
inactive: [1] 5.62% | [2] 5.5% | [3] 6.59% | [4] 0.4% | [5] 13.8% | [6] 9.71% | [7] -7.59% | [8] 4.61% | [9] 23.3% | [10] 1.72% | [11] -4.96% | [12] 19.9% | [13] 14.3% | [14] 14.6% | Rattus norvegicus -2.43% | [15] 3.44%
